Patent US9944602B2, “Piperidinone herbicides” (E. I. DU PONT DE NEMOURS AND COMPANY, priority 2014, dated 2018)

Tests used:
Assay type in all cases: in vivo
[1] = test system: wheat (Triticum aestivum); test: Test A postemergence wheat; conditions: Triticum aestivum, post-emergence, 240 h, 0 to 100 scale, 0 is no effect, 100 is complete control, read-out: Plant response rating, Wheat; for plant injury at 125 g/ha: 125 g ai/ha; for plant injury at 500 g/ha: 500 g ai/ha
Procedure, shortened: (§1)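 Visual injury rating, 0–100 scale (0 = no effect, 100 = complete control), versus untreated controls ~10 d after treatment in greenhouse. Pre: directed soil spray onto seeded loam/sand. Post: foliar spray at 2–10 cm, 1–2 leaf stage. Solvent-surfactant formulation.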

[2] = test system: blackgrass (Alopecurus myosuroides); test: Test A postemergence blackgrass; conditions: Alopecurus myosuroides, post-emergence, 240 h, 0 to 100 scale, 0 is no effect, 100 is complete control, read-out: Plant response rating, Blackgrass; for pest or weed control at 125 g/ha: 125 g ai/ha; for pest or weed control at 500 g/ha: 500 g ai/ha
Procedure, shortened: as §1

[3] = test system: foxtail, giant (giant foxtail, Setaria faberii); test: Test A preemergence foxtail, giant; conditions: Setaria faberi, pre-emergence, 240 h, 0 to 100 scale, 0 no effect, 100 complete control, read-out: Foxtail, Giant plant response rating; for pest or weed control at 125 g/ha: 125 g ai/ha; for pest or weed control at 500 g/ha: 500 g ai/ha
Procedure, shortened: as §1

[4] = test system: corn (Zea mays); test: Test A postemergence corn; conditions: Zea mays, post-emergence, 240 h, 0 to 100 scale, 0 is no effect, 100 is complete control; for Corn plant response rating (crop injury, 0 = no effect, 100 = complete kill) at 125 g/ha: 125 g ai/ha; for Corn plant response rating (crop injury, 0 = no effect, 100 = complete kill) at 500 g/ha: 500 g ai/ha
Procedure, shortened: as §1

[5] = test system: pigweed (Amaranthus retroflexus); test: Test A preemergence pigweed; conditions: Amaranthus retroflexus, pre-emergence, 240 h, 0 to 100 scale, 0 no effect, 100 complete control, read-out: Pigweed plant response rating; for pest or weed control at 125 g/ha: 125 g ai/ha; for pest or weed control at 500 g/ha: 500 g ai/ha
Procedure, shortened: as §1

[6] = test system: ragweed (common ragweed, Ambrosia elatior); test: Test A preemergence ragweed; conditions: Ambrosia artemisiifolia, pre-emergence, 240 h, 0 to 100 scale, 0 no effect, 100 complete control, read-out: Ragweed plant response rating; for pest or weed control at 125 g/ha: 125 g ai/ha; for pest or weed control at 500 g/ha: 500 g ai/ha
Procedure, shortened: as §1

[7] = test system: ducksalad (Heteranthera limosa); test: Test B flooded paddy test ducksalad; conditions: Heteranthera limosa, Table B, Flood, 250 g ai/ha, scale 0 to 100, read-out: Plant response rating
Procedure, shortened: (§2)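 Plants grown to the 2-leaf stage; pots flooded to 3 cm above soil at treatment, compound applied directly into paddy water, depth held throughout. Greenhouse 13 to 15 d, then visual evaluation against untreated controls.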

[8] = test system: foxtail, giant (giant foxtail, Setaria faberii); test: Test A postemergence foxtail, giant; conditions: Setaria faberi, post-emergence, 240 h, 0 to 100 scale, 0 is no effect, 100 is complete control, read-out: Plant response rating, Foxtail, Giant; for pest or weed control at 125 g/ha: 125 g ai/ha; for pest or weed control at 500 g/ha: 500 g ai/ha
Procedure, shortened: as §1

[9] = test system: ragweed (common ragweed, Ambrosia elatior); test: Test A postemergence ragweed; conditions: Ambrosia artemisiifolia, post-emergence, 240 h, 0 to 100 scale, 0 is no effect, 100 is complete control, read-out: Plant response rating, Ragweed; for pest or weed control at 125 g/ha: 125 g ai/ha; for pest or weed control at 500 g/ha: 500 g ai/ha
Procedure, shortened: as §1

[10] = test system: kochia (Kochia scoparia); test: Test A postemergence kochia; conditions: Bassia scoparia, post-emergence, 240 h, 0 to 100 scale, 0 is no effect, 100 is complete control, read-out: Plant response rating, Kochia; for pest or weed control at 125 g/ha: 125 g ai/ha; for pest or weed control at 500 g/ha: 500 g ai/ha
Procedure, shortened: as §1

[11] = test system: barnyardgrass (Echinochloa crus-galli); test: Test A preemergence barnyardgrass; conditions: Echinochloa crus-galli, pre-emergence, 240 h, 0 to 100 scale, 0 no effect, 100 complete control, read-out: Barnyardgrass plant response rating; for pest or weed control at 125 g/ha: 125 g ai/ha; for pest or weed control at 500 g/ha: 500 g ai/ha
Procedure, shortened: as §1

[12] = test system: barnyardgrass (Echinochloa crus-galli); test: Test B flooded paddy test barnyardgrass; conditions: Echinochloa crus-galli, Table B, Flood, 250 g ai/ha, scale 0 to 100, read-out: Plant response rating
Procedure, shortened: as §2

[13] = test system: rice (Oryza sativa); test: Test B flooded paddy test rice; conditions: Oryza sativa, Table B, Flood, 250 g ai/ha, scale 0 to 100, read-out: Plant response rating
Procedure, shortened: as §2

[14] = test system: ryegrass, Italian (Italian ryegrass, Lolium multiflorum); test: Test A preemergence ryegrass, Italian; conditions: Lolium multiflorum, pre-emergence, 240 h, 0 to 100 scale, 0 no effect, 100 complete control, read-out: Ryegrass, Italian plant response rating; for pest or weed control at 125 g/ha: 125 g ai/ha; for pest or weed control at 500 g/ha: 500 g ai/ha
Procedure, shortened: as §1

[15] = test system: galium (catchweed bedstraw, Galium aparine); test: Test A postemergence galium; conditions: Galium, post-emergence, 240 h, 0 to 100 scale, 0 is no effect, 100 is complete control, read-out: Plant response rating, Galium; for pest or weed control at 125 g/ha: 125 g ai/ha; for pest or weed control at 500 g/ha: 500 g ai/ha
Procedure, shortened: as §1

[16] = test system: sedge, umbrella (small-flower umbrella sedge, Cyperus difformis); test: Test B flooded paddy test sedge, umbrella; conditions: Cyperus difformis, Table B, Flood, 250 g ai/ha, scale 0 to 100, read-out: Plant response rating
Procedure, shortened: as §2

[17] = test system: kochia (Kochia scoparia); test: Test A preemergence kochia; conditions: Bassia scoparia, pre-emergence, 240 h, 0 to 100 scale, 0 no effect, 100 complete control, read-out: Kochia plant response rating; for pest or weed control at 125 g/ha: 125 g ai/ha; for pest or weed control at 500 g/ha: 500 g ai/ha
Procedure, shortened: as §1

[18] = test system: barnyardgrass (Echinochloa crus-galli); test: Test A postemergence barnyardgrass; conditions: Echinochloa crus-galli, post-emergence, 240 h, 0 to 100 scale, 0 is no effect, 100 is complete control, read-out: Plant response rating, Barnyardgrass; for pest or weed control at 125 g/ha: 125 g ai/ha; for pest or weed control at 500 g/ha: 500 g ai/ha
Procedure, shortened: as §1

[19] = test system: pigweed (Amaranthus retroflexus); test: Test A postemergence pigweed; conditions: Amaranthus retroflexus, post-emergence, 240 h, 0 to 100 scale, 0 is no effect, 100 is complete control, read-out: Plant response rating, Pigweed; for pest or weed control at 125 g/ha: 125 g ai/ha; for pest or weed control at 500 g/ha: 500 g ai/ha
Procedure, shortened: as §1

[20] = test system: ryegrass, Italian (Italian ryegrass, Lolium multiflorum); test: Test A postemergence ryegrass, Italian; conditions: Lolium multiflorum, post-emergence, 240 h, 0 to 100 scale, 0 is no effect, 100 is complete control, read-out: Plant response rating, Ryegrass, Italian; for pest or weed control at 125 g/ha: 125 g ai/ha; for pest or weed control at 500 g/ha: 500 g ai/ha
Procedure, shortened: as §1

SMILES	plant injury at 125 g/ha [1] [%]	plant injury at 500 g/ha [1] [%]	pest or weed control at 125 g/ha [2] [%]	pest or weed control at 500 g/ha [2] [%]	pest or weed control at 125 g/ha [3] [%]	pest or weed control at 500 g/ha [3] [%]	Corn plant response rating (crop injury, 0 = no effect, 100 = complete kill) at 125 g/ha [4] [%]	Corn plant response rating (crop injury, 0 = no effect, 100 = complete kill) at 500 g/ha [4] [%]	pest or weed control at 125 g/ha [5] [%]	pest or weed control at 500 g/ha [5] [%]	pest or weed control at 125 g/ha [6] [%]	pest or weed control at 500 g/ha [6] [%]	pest or weed control at 250 g/ha [7] [%]	pest or weed control at 125 g/ha [8] [%]	pest or weed control at 500 g/ha [8] [%]	pest or weed control at 125 g/ha [9] [%]	pest or weed control at 500 g/ha [9] [%]	pest or weed control at 125 g/ha [10] [%]	pest or weed control at 500 g/ha [10] [%]	pest or weed control at 125 g/ha [11] [%]	further results
O=C1NCCC(c2cccc(C(F)(F)F)c2)C1C(=O)Nc1ccc(F)c(F)c1F (stereo not drawn) [Compound 30, 2-oxo-4-[3-(trifluoromethyl)phenyl]-N-(2,3,4-trifluorophenyl)-3-piperidinecarboxamide]	30	60	70	80	90	90	30	70	0	0	0	0	50	80	80	0	0	0	0	90	pest or weed control at 500 g/ha [11]: 90%; pest or weed control at 250 g/ha [12]: 50%; plant injury at 250 g/ha [13]: 20%; pest or weed control at 125 g/ha [14]: 20%; pest or weed control at 500 g/ha [14]: 50%; pest or weed control at 125 g/ha [15]: 0%; pest or weed control at 500 g/ha [15]: 0%; pest or weed control at 250 g/ha [16]: 0%; pest or weed control at 125 g/ha [17]: 0%; pest or weed control at 500 g/ha [17]: 0%; pest or weed control at 125 g/ha [18]: 80%; pest or weed control at 500 g/ha [18]: 80%; pest or weed control at 125 g/ha [19]: 0%; pest or weed control at 500 g/ha [19]: 0%; pest or weed control at 125 g/ha [20]: 0%; pest or weed control at 500 g/ha [20]: 20%
O=C1NCC[C@H](c2cccc(Cl)c2)[C@H]1C(=O)Nc1cccc(F)c1F [Compound 42, (3R,4S)-4-(3-chlorophenyl)-N-(2,3-difluorophenyl)-2-oxo-3-piperidinecarboxamide]	0	60	40	70	90	90	10	60	0	10	0	0	95	90	90	0	0	0	30	90	pest or weed control at 500 g/ha [11]: 90%; pest or weed control at 250 g/ha [12]: 75%; plant injury at 250 g/ha [13]: 0%; pest or weed control at 125 g/ha [14]: 40%; pest or weed control at 500 g/ha [14]: 60%; pest or weed control at 125 g/ha [15]: 0%; pest or weed control at 500 g/ha [15]: 10%; pest or weed control at 250 g/ha [16]: 0%; pest or weed control at 125 g/ha [17]: 0%; pest or weed control at 500 g/ha [17]: 0%; pest or weed control at 125 g/ha [18]: 80%; pest or weed control at 500 g/ha [18]: 90%; pest or weed control at 125 g/ha [19]: 0%; pest or weed control at 500 g/ha [19]: 0%; pest or weed control at 125 g/ha [20]: 40%; pest or weed control at 500 g/ha [20]: 50%
